What was measured:
WSN-Ren virus [1] = assay type: cell-based, influenza A/WSN/33 virus
influenza A/WSN/33 virus [2] = assay: Small molecule inhibition of virus growth in A549 cells, plaque assay; assay type: cell-based
[3] = system: pseudotyped lentivirus particles bearing influenza virus HA (WSN); assay type: cell-based
influenza virus = assay type: cell-based
influenza A/WSN/33 virus [4] = assay type: cell-based
WSN-Ren virus [5] = assay type: cell-based, influenza A/WSN/33 virus; remark: listed apart in the source

**Q.** For CCc1cc(-c2n[nH]c(C)c2-c2ccc3c(c2)OCCO3)c(O)cc1O [CCT018159, 4-(4-(2,3-Dihydro-1,4-benzodioxin-6-yl)-5-methyl-1H-pyrazol-3-yl)-6-ethylresorcinol], which WSN-Ren virus growth (WSN-Ren virus [1]) is on record?
**A.** reduce influenza virus growth

**Q.** How did the “inhibition of influenza A/WSN/33 virus” value (influenza A/WSN/33 virus [2]; A549 cells, MOI=1, FIG. 8b) turn out when COc1cc2c(O)c3c(c(-c4ccc5c(c4)OCO5)c2cc1OC)C(=O)OC3 [Diphyllin] was run?
**A.** Dose-dependent inhibition

**Q.** And the influenza virus entry [3]?
**A.** inhibits influenza virus entry

**Q.** And the “influenza virus inhibitory activity in high-throughput screen” value (influenza virus)?
**A.** having influenza virus inhibitory activity

**Q.** O=c1[nH]c2ccccc2c(O)c1-c1nc2ccccc2[nH]1 [FGF/VEGF Receptor Inhibitor, 4-Hydroxy-3-benzimidazol-2-ylhydroquinolin-2-one] was tested. Which WSN-Ren virus growth (WSN-Ren virus [1]) did it give?
**A.** reduce influenza virus growth

**Q.** What does the source list for COc1ccc(S(=O)(=O)N(CCO)c2ccccc2CN(C)C/C=C/c2ccc(Cl)cc2)cc1 [KN-93]?
**A.** cell viability (ATP levels) (MDCK cells): without affecting cell viability; A/WSN/33 influenza viral replication (viral titers) (influenza A/WSN/33 virus [4]): inhibits A/WSN/33 influenza viral replication in a dose-dependent manner; influenza virus growth by plaque assay (influenza A/WSN/33 virus [2]; 20 μM): impairs influenza virus growth

**Q.** For COc1cc([C@@H]2c3cc4c(cc3[C@H](O)[C@H]3COC(=O)[C@H]23)OCO4)cc(OC)c1OC [Podophyllotoxin], which WSN-Ren virus growth (WSN-Ren virus [1]) is on record?
**A.** reduce influenza virus growth

**Q.** With “HIST3H3 (guide TGAGAGGTTGCGCAACGTTCA; target site or template, no part of the molecule; target sequence, further chemistry not given here)” as the compound, how does the “Avg Score 12 h” value (WSN-Ren virus [5]) read?
**A.** 0.6254

**Q.** What about the “Avg Score 24 h” value (WSN-Ren virus [5]) of the same compound?
**A.** 0.5921

**Q.** And the “Avg Score 36 h” value (WSN-Ren virus [5])?
**A.** 0.4817
